# From patent US12310973B2, “Administration and dosage of diaminophenothiazines” (WisTa Laboratories Ltd., priority 2016, dated 2025)
# Columns and labels:
# [1] = system: mild to moderate AD patients; experiment: Phase 3 trial in mild to moderate AD: MRI volumetry (LVV, TPV, HV); type: in vivo, human; details: for HV, Estimate (difference vs control) / LVV, Estimate (difference vs control) / TPV, Estimate (difference vs control): Table 5
# Text: The co-primary efficacy outcomes were change from baseline in 11-item Alzheimer's Disease Assessment Scale—cognitive subscale (ADAS-cog) and the 23-item Alzheimer's Disease Cooperative Study Activities of Daily Living (ADCS-ADL). Magnetic resonance imaging (MRI) volumetry was chosen as the principal secondary outcome to support a potential effect on the rate of brain atrophy (Fox et al., 1997; Ridha et al., 2008). Change in Lateral Ventricular Volume (LVV), as measured by the Ventricular Boundary Shift Integral (VBSI), (Salloway et al., 2014) was chosen as the principal measure as it provides high-contrast boundaries for measurement and is less affected by motion artefacts than whole brain or smaller structures. Key supportive topographical measures (temporo-parietal (TPV) and hippocampal volume (HV)) are also reported.
# ADAS-cog and ADCS-ADL assessments were performed at baseline and every 13 weeks thereafter, with change at 65 weeks (the final on-treatment visit) the primary efficacy measures. These were repeated at the final off-treatment follow-up visit at Week 69. Secondary efficacy measures included Clinical Global Impression of Change (ADCS-CGIC, administered by an independent rater); MMSE, administered on screening and at Weeks 26, 52, 65 and 69. Brain MRI scans were performed at baseline/screening and every 13 weeks using a standardized protocol including volumetric 3D T1-weighted data consistent with ADNI recommendations, FLAIR, T2* Gradient Echo and T2-weighted sequences. Diffusion-Weighted Imaging was also available at screening in order to exclude patients with co-existing pathology that would lead to a diagnosis other than probable AD. Each site was first qualified ensuring standardised acquisition protocol, patient handling and data management. MRI data were centrally collected by Imaging Corelab (Bioclinica). Data were centrally reviewed by RadMD for eligibility and safety (Amyloid Related Imaging Abnormalities, or ARIA monitoring) on an on-going basis. Volumetric 3DT1 data were also reviewed centrally in order to measure (using a boundary shift integral (BSI) technique; Salloway et al., 2014) change in LVV as principal secondary outcome measure, and as exploratory endpoints temporo-parietal volume (TPV), whole brain volume (WBV) and hippocampal volume (HV, estimated as the mean of left and right) (Wischik et al., 2016). Additional exploratory endpoints included change in glucose uptake in the temporal lobe, assessed using ^18F-fluorodeoxyglucose positron emission tomography (FDG-PET) performed during screening and at Weeks 39 and 65 in a subset of patients in sites with this imaging capability. Changes in cerebrospinal fluid biomarkers of Alzheimer's disease, including total tau, phospho-tau and amyloid-β1-42, were explored using cerebrospinal fluid samples that were collected at baseline and Week 65 (or early termination visit). Lumbar punctures were performed only in subjects who were themselves able to provide consent specifically for this procedure.
# The primary efficacy analyses of change from baseline in ADAS-cog and ADCS-ADL scores were conducted in the modified intent-to-treat (mITT) population (all randomised patients who took at least one dose of study treatment and had at least one post-baseline, on-treatment efficacy assessment). The primary analysis was specified as a mixed model repeated-measures (MMRM) analysis with an unstructured covariance matrix and no imputation for missing data. The model included categorical visit (5 levels corresponding to assessments at weeks 13, 26, 39, 52 and 65), treatment (3 levels corresponding to control, 75 mg b.i.d. and 125 mg b.i.d.), treatment-by-visit interaction, and the stratification variables as additive terms, and baseline ADAS-cog or ADCS-ADL as a covariate. A similar exploratory analysis was specified in the Statistical Analysis Plan (SAP) with the AChEI/Mem covariate as an interaction term with treatment and as an interaction term with visit. […]
# Mild AD patients = experiment: Further 18-month Phase 3 trial in mild AD; type: in vivo, human
# Protocol: To examine the potential efficacy of LMTM as monotherapy in non-randomised observational cohort analyses as modified primary outcomes in an 18-months Phase 3 trial in mild AD.
# Mild AD patients (n=800) were randomly assigned to 100 mg twice a day or 4 mg twice a day.
# The Statistical Analysis Plan was revised in light of Example 3 (which completed earlier) prior to database lock and unblinding, to compare the 100 mg twice a day as monotherapy subgroup (n=79) versus 4 mg twice a day as randomised (n=396), and 4 mg twice a day as monotherapy (n=76) versus 4 mg twice a day as add-on therapy (n=297), with strong control of family-wise type I error.
# We therefore modified the primary analyses and treatment comparisons in the study described in this Example (prior to database lock and unblinding) to investigate whether the monotherapy differences could be confirmed as observational cohort comparisons defined as primary outcomes with strong control of family-wise type I error in the second independent study. The monotherapy cohort comparisons which were of particular interest in light of the earlier study were: (A) 100 mg twice a day a monotherapy compared with the controls as originally randomised, and (B) 4 mg twice a day as monotherapy compared with the same dose as add-on to standard AD treatments.
# [2] = Table 5, AChEI/Mem as interaction term, control arm (4 mg b.i.d.)
# [3] = Table 6 post-hoc, control-arm subjects, 4 mg b.i.d. + AChEI/Mem
# [4] = Table 6 post-hoc, 4 mg b.i.d. alone vs 4 mg b.i.d. + AChEI/Mem
# [5] = Table 7, mild AD, 4 mg b.i.d. + AChEI/Mem (control-arm subjects)
# [6] = Table 7, mild AD, 4 mg b.i.d. alone vs 4 mg b.i.d. + AChEI/Mem
# [7] = Table 7, mild AD, 75 mg b.i.d. alone vs control arm as randomised
# [8] = Table 7, mild AD, 125 mg b.i.d. alone vs control arm as randomised
# [9] = Table 7, mild AD, control arm as randomised (4 mg b.i.d.)
# [10] = Table 7, moderate AD, 4 mg b.i.d. + AChEI/Mem (control-arm subjects)
# [11] = Table 7, moderate AD, 4 mg b.i.d. alone vs 4 mg b.i.d. + AChEI/Mem
# [12] = Table 7, moderate AD, 75 mg b.i.d. alone vs control arm as randomised
# [13] = Table 7, moderate AD, 125 mg b.i.d. alone vs control arm as randomised
# [14] = Table 7, moderate AD, control arm as randomised (4 mg b.i.d.)
smiles,measurement,setting,value
"CN(C)c1ccc2c(c1)Sc1cc(N(C)C)ccc1N2 [LMTM, leuco-methythioninium bis(hydromethanesulfonate)]",Increase in TPV relative to control,[1]; 75 mg b.i.d. monotherapy,31%±8%
same,Reduction in LVV (progression of atrophy) relative to control,[1]; 75 mg b.i.d. monotherapy,38%±9%
same,Increase in TPV relative to control,[1]; 125 mg b.i.d. monotherapy,26%±8%
same,Reduction in LVV (progression of atrophy) relative to control,[1]; 125 mg b.i.d. monotherapy,33%±9%
same,"HV, Estimate (change from baseline)",[1]; [2],−115.3 mm^3
same,"LVV, Estimate (change from baseline)",[1]; [2],"7,187 mm^3"
same,"TPV, Estimate (change from baseline)",[1]; [2],−1529 mm^3
same,"HV, Estimate (difference vs control)",[1]; 75 mg b.i.d. + AChEI/Mem,−2.0 mm^3
same,"LVV, Estimate (difference vs control)",[1]; 75 mg b.i.d. + AChEI/Mem,−273 mm^3
same,"TPV, Estimate (difference vs control)",[1]; 75 mg b.i.d. + AChEI/Mem,−39 mm^3
same,"HV, Estimate (difference vs control)",[1]; 75 mg b.i.d. monotherapy,9.5 mm^3
same,"LVV, Estimate (difference vs control)",[1]; 75 mg b.i.d. monotherapy,"−2,707 mm^3"
same,"TPV, Estimate (difference vs control)",[1]; 75 mg b.i.d. monotherapy,472 mm^3
same,"HV, Estimate (difference vs control)",[1]; 125 mg b.i.d. + AChEI/Mem,−7.4 mm^3
same,"LVV, Estimate (difference vs control)",[1]; 125 mg b.i.d. + AChEI/Mem,−306 mm^3
same,"TPV, Estimate (difference vs control)",[1]; 125 mg b.i.d. + AChEI/Mem,−12 mm^3
same,"HV, Estimate (difference vs control)",[1]; 125 mg b.i.d. monotherapy,20.0 mm^3
same,"LVV, Estimate (difference vs control)",[1]; 125 mg b.i.d. monotherapy,"−2,347 mm^3"
same,"TPV, Estimate (difference vs control)",[1]; 125 mg b.i.d. monotherapy,405 mm^3
same,"HV, Estimate (change from baseline)",[1]; [3],−117.8 mm^3
same,"LVV, Estimate (change from baseline)",[1]; [3],"7,426 mm^3"
same,"TPV, Estimate (change from baseline)",[1]; [3],"−1,596 mm^3"
same,"HV, Estimate (difference)",[1]; [4],19.5 mm^3
same,"LVV, Estimate (difference)",[1]; [4],"−1,894 mm^3"
same,"TPV, Estimate (difference)",[1]; [4],534 mm^3
same,"HV, Estimate (change from baseline)",[1]; [5],−119.5 mm^3
same,"LVV, Estimate (change from baseline)",[1]; [5],"6,167 mm^3"
same,"TPV, Estimate (change from baseline)",[1]; [5],"−1,398 mm^3"
same,"HV, Estimate (difference)",[1]; [6],46.7 mm^3
same,"LVV, Estimate (difference)",[1]; [6],"−2,655 mm^3"
same,"TPV, Estimate (difference)",[1]; [6],722 mm^3
same,"HV, Estimate (difference)",[1]; [7],16.9 mm^3
same,"LVV, Estimate (difference)",[1]; [7],"−2,549 mm^3"
same,"TPV, Estimate (difference)",[1]; [7],392 mm^3
same,"HV, Estimate (difference)",[1]; [8],40.5 mm^3
same,"LVV, Estimate (difference)",[1]; [8],"−2,695 mm^3"
same,"TPV, Estimate (difference)",[1]; [8],439 mm^3
same,"HV, Estimate (change from baseline)",[1]; [9],−115.8 mm^3
same,"LVV, Estimate (change from baseline)",[1]; [9],"5,789 mm^3"
same,"TPV, Estimate (change from baseline)",[1]; [9],"−1,309 mm^3"
same,"HV, Estimate (change from baseline)",[1]; [10],−116.6 mm^3
same,"LVV, Estimate (change from baseline)",[1]; [10],"8,143 mm^3"
same,"TPV, Estimate (change from baseline)",[1]; [10],"−1,697 mm^3"
same,"HV, Estimate (difference)",[1]; [11],−2.4 mm^3
same,"LVV, Estimate (difference)",[1]; [11],−940 mm^3
same,"TPV, Estimate (difference)",[1]; [11],370 mm^3
same,"HV, Estimate (difference)",[1]; [12],3.6 mm^3
same,"LVV, Estimate (difference)",[1]; [12],"−2,251 mm^3"
same,"TPV, Estimate (difference)",[1]; [12],469 mm^3
same,"HV, Estimate (difference)",[1]; [13],2.2 mm^3
same,"LVV, Estimate (difference)",[1]; [13],"−1,703 mm^3"
same,"TPV, Estimate (difference)",[1]; [13],293 mm^3
same,"HV, Estimate (change from baseline)",[1]; [14],−116.9 mm^3
same,"LVV, Estimate (change from baseline)",[1]; [14],"8,023 mm^3"
same,"TPV, Estimate (change from baseline)",[1]; [14],"−1,649 mm^3"
same,Hippocampus volume benefit (increase),"[1]; mild patients, LMTM monotherapy",35.5 mm^3
same,Withdrawal rate over 18 months,Mild AD patients; 4 mg twice a day,25%
same,Withdrawal rate over 18 months,Mild AD patients; 100 mg twice a day,46%
same,"Revised analyses on ADAS-cog, ADCS-ADL, MRI atrophy and glucose uptake","Mild AD patients; 100 mg twice a day monotherapy vs 4 mg twice a day as randomised, 4 mg twice a day monotherapy vs add-on, 18 months",statistically significant at the required threshold of p<0.025
same,Annualised rate of whole brain atrophy,"Mild AD patients; after LMTM as monotherapy for 9 months, within-cohort comparison",the rate was reduced to that reported for normal elderly controls
